The EC50 is the concentration giving half of the maximal effect. Read a high EC50 as weaker potency. Usually IC50 stands for the concentration that inhibits the measured activity by half.

From patent publication US20250129070A1, “BIFUNCTIONAL ANDROGEN RECEPTOR COMPOUNDS” (priority 2023, published 2025) come the findings set out here.

For one experiment, the system named is AR / CBP ternary complex. The experiment is described as follows: Ternary complex formation assay (sandwich ELISA, AR capture / CBP detection) in VCaP cell lysates. It counts as cell-based. Particulars: 1.5 hours treatment, sandwich ELISA (AR capture, CBP or p300 detection). In short, it runs like this: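 Anti-AR (AR 441)-coated plates capture AR from lysates of VCaP cells grown ≥3 days at 50K/well in 5% charcoal-stripped FBS, dosed with bifunctional for 1.5 h and lysed 30 min at 4 °C. Co-captured CBP/p300 is probed with rabbit mAb and HRP anti-rabbit, then QuantaRed fluorescence (570/585) is read at 0, 5 and 15 min.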

Another experiment concerns VCaP cells. The experiment is described as follows: VCaP growth inhibition assay. The format is cell-based. Particulars: 30 pM R1881, 9 days, CTG. The protocol: VCaP cells (ATCC Cat #CRL-2876) are plated at 1×10^4 cells per well of a white plastic 96-well cluster plate (Thermo Scientific Nunc Cat #165306) in 100 uL phenol red-free DMEM (Gibco Cat #21063-029) media with 5% CSS (Omega Scientific Cat #FB-04). Cluster plates are returned to the incubator (37*C/5% CO2) for 72 hours prior to treatment. Just prior to treatment, 100 μL of phenol red-free DMEM/5% CSS and […] R1881 (Sigma Cat #R0908-10 mg) was added to each well of the cluster plates (Final R1881 concentration=30 pM). Compounds (200×) were added to each well in a volume of 1 uL, with serial dilutions (1:5) from 20 uM to 2 pM (final concentrations in well are 100 nM to 10 fM). Cluster plates are returned to the incubator for 9 days.
After the 9-day treatment period, media was removed from the cluster plates by inversion and 100 uL room temperature CTG reagent (Promega Cat #G7573) is added to each well. The cluster plates are placed on a shaker and incubated at room temperature for 20 minutes. Following this shaking/incubation, cluster plates are read on a luminometer (BMG ClarioStar). IC50 values are obtained by graphing the RLU data vs. compound concentration with nonlinear regression 4-parameter logistic curves (GraphPad Prism).

`Cn1cc(-c2cc3c(cc2C(F)F)N(c2cc(C4CCN(CC5CCN(c6ncc(C(=O)NC7C(C)(C)C(Oc8ccc(C#N)c(Cl)c8)C7(C)C)cn6)CC5)CC4)c4c(c2)n(C)c(=O)n4C)CCC3)cn1` (stereo not shown) [Compound 214, N-[3-(3-chloro-4-cyano-phenoxy)-2,2,4,4-tetramethyl-cyclobutyl]-2-[4-[[4-[6-[7-(difluoromethyl)-6-(1-methylpyrazol-4-yl)-3,4-dihydro-2H-quinolin-1-yl]-1,3-dimethyl-2-oxo-benzimidazol-4-yl]-1-piperidyl]methyl]-1-piperidyl]pyrimidine-5-carboxamide] had an EC50 in the experiment on AR / CBP ternary complex of less than 1 nM. In the experiment with VCaP cells, the IC50 is 1 to 100 nM.

In the experiment on AR / CBP ternary complex, `CC(=O)N1CCc2c(c(N3CCCc4cc(-c5cnn(C)c5)c(C(F)F)cc43)nn2C2CCN(C[C@H]3CCN(c4ncc(C(=O)NC5C(C)(C)C(Oc6ccc(C#N)c(Cl)c6)C5(C)C)cn4)C[C@H]3C)CC2)C1` (stereo partly shown) [Compound 364] returned an EC50 of less than 1 nM. This molecule also returned a half-inhibitory concentration (IC50) in the experiment with VCaP cells not above 0.1 nM.

`COc1cc(OC2C(C)(C)C(NC(=O)c3ccc(N4CCN(C5CN(c6ccc(-c7cc8cccc(-c9nn(C%10CCOCC%10)c%10c9CN(C(C)=O)CC%10)c8cn7)cn6)C5)CC4)cc3)C2(C)C)ccc1C#N` (stereo not shown) [Compound 322, 4-[4-[1-[5-[8-(5-acetyl-1-tetrahydropyran-4-yl-6,7-dihydro-4H-pyrazolo[4,3-c]pyridin-3-yl)-3-isoquinolyl]-2-pyridyl]azetidin-3-yl]piperazin-1-yl]-N-[3-(4-cyano-3-methoxy-phenoxy)-2,2,4,4-tetramethyl-cyclobutyl]benzamide]: the concentration giving a half-maximal response (EC50) in the experiment with AR / CBP ternary complex was less than 1 nM. This molecule also yielded an IC50 in the experiment on VCaP cells not above 0.1 nM.

Turning to `CC(=O)N1CCc2c(c(N3CCCc4cc(-c5cnn(C)c5)c(C(F)F)cc43)nn2C2CCN(CC3C(C)CN(c4ncc(C(=O)NC5C(C)(C)C(Oc6ccc(C#N)c(Cl)c6C)C5(C)C)cn4)CC3C)CC2)C1` (stereo not shown) [Compound 460, 2-[4-[[4-[5-acetyl-3-[7-(difluoromethyl)-6-(1-methylpyrazol-4-yl)-3,4-dihydro-2H-quinolin-1-yl]-6,7-dihydro-4H-pyrazolo[4,3-c]pyridin-1-yl]-1-piperidyl]methyl]-3,5-dimethyl-1-piperidyl]-N-[3-(3-chloro-4-cyano-2-methyl-phenoxy)-2,2,4,4-tetramethyl-cyclobutyl]pyrimidine-5-carboxamide], the 50% effective concentration (EC50) in the experiment with AR / CBP ternary complex is less than 1 nM. In the experiment with VCaP cells, this molecule showed an IC50 not above 0.1 nM.

Molecule `COc1cc(OC2C(C)(C)C(NC(=O)c3ccc(N4CCC(N5CCC(n6nc(N7CCCc8cc(-c9cnn(C)c9)c(C(F)F)cc87)c7c6CCN(C(C)=O)C7)CC5)C(C)C4)cc3)C2(C)C)ccc1C#N` (stereo not shown) [Compound 304, 4-[4-[4-[5-acetyl-3-[7-(difluoromethyl)-6-(1-methylpyrazol-4-yl)-3,4-dihydro-2H-quinolin-1-yl]-6,7-dihydro-4H-pyrazolo[4,3-c]pyridin-1-yl]-1-piperidyl]-3-methyl-1-piperidyl]-N-[3-(4-cyano-3-methoxy-phenoxy)-2,2,4,4-tetramethyl-cyclobutyl]benzamide] displayed an EC50 with AR / CBP ternary complex of less than 1 nM. Moreover, the IC50 in the experiment on VCaP cells is 0.1 to 1 nM.

The molecule `COc1cc(OC2C(C)(C)C(NC(=O)c3ccc(N4CC(N5CCC6(CCC(n7nc(N8CCCc9cc(-c%10cnn(C)c%10)c(C(F)F)cc98)c8c7CCN(C(C)=O)C8)CC6)C5)C4)cc3)C2(C)C)ccc1C#N` (stereo not shown) [Compound 402, 4-[3-[8-[5-acetyl-3-[7-(difluoromethyl)-6-(1-methylpyrazol-4-yl)-3,4-dihydro-2H-quinolin-1-yl]-6,7-dihydro-4Hpyrazolo[4,3-c]pyridin-1-yl]-2-azaspiro[4.5]decan-2-yl]azetidin-1-yl]-N-[3-(4-cyano-3-methoxy-phenoxy)-2,2,4,4-tetramethyl-cyclobutyl]benzamide] gave an EC50 in the experiment with AR / CBP ternary complex of less than 1 nM. For the same molecule, the IC50 with VCaP cells is not above 0.1 nM.

Turning to `CC(=O)N1CCc2c(c(N3CCCc4cc(C#N)c(C(F)F)cc43)nn2C2CCN(CC3CCN(c4ncc(C(=O)NC5C(C)(C)C(Oc6ccc(C#N)c(Cl)c6)C5(C)C)cn4)CC3(C)C)CC2)C1` (stereo not shown) [Compound 450, 2-[4-[[4-[5-acetyl-3-[6-cyano-7-(difluoromethyl)-3,4-dihydro-2H-quinolin-1-yl]-6,7-dihydro-4H-pyrazolo[4,3-c]pyridin-1-yl]-1-piperidyl]methyl]-3,3-dimethyl-1-piperidyl]-N-[3-(3-chloro-4-cyano-phenoxy)-2,2,4,4-tetramethyl-cyclobutyl]pyrimidine-5-carboxamide], the EC50 in the experiment with AR / CBP ternary complex is less than 1 nM. In the experiment on VCaP cells, this molecule showed an IC50 of 0.1 to 1 nM.

`COc1cc(OC2C(C)(C)C(NC(=O)c3cnc(N4CCC(CN5CCC(n6nc(N7CCCc8cc(-c9cnn(C)c9)c(C(F)F)cc87)c7c6CCN(C(C)=O)C7)CC5)C5(CC5)C4)nc3)C2(C)C)ccc1C#N` (stereo not shown) [Compound 362, 2-[8-[[4-[5-acetyl-3-[7-(difluoromethyl)-6-(1-methylpyrazol-4-yl)-3,4-dihydro-2H-quinolin-1-yl]-6,7-dihydro-4H-pyrazolo[4,3-c]pyridin-1-yl]-1-piperidyl]methyl]-5-azaspiro[2.5]octan-5-yl]-N-[3-(4-cyano-3-methoxy-phenoxy)-2,2,4,4-tetramethyl-cyclobutyl]pyrimidine-5-carboxamide]: in the experiment with AR / CBP ternary complex, the 50% effective concentration (EC50) is less than 1 nM. Besides, the IC50 with VCaP cells is not above 0.1 nM.

With `CC(=O)N1CCc2c(c(N3CCCc4cc(-c5cnn(C)c5)c(C(F)F)cc43)nn2C2CCN(C3CC(Oc4ncc(C(=O)NC5C(C)(C)C(Oc6ccc(C#N)c(Cl)c6)C5(C)C)cn4)C3)CC2)C1` (stereo not shown) [Compound 376, 2-[3-[4-[5-acetyl-3-[7-(difluoromethyl)-6-(1-methylpyrazol-4-yl)-3,4-dihydro-2H-quinolin-1-yl]-6,7-dihydro-4H-pyrazolo[4,3-c]pyridin-1-yl]-1-piperidyl]cyclobutoxy]-N-[3-(3-chloro-4-cyano-phenoxy)-2,2,4,4-tetramethyl-cyclobutyl]pyrimidine-5-carboxamide], the EC50 in the experiment on AR / CBP ternary complex was less than 1 nM. The molecule also registered an IC50 with VCaP cells of 0.1 to 1 nM.

`CC(=O)N1CCc2c(c(N3CCCc4cc(-c5cnn(C)c5)c(C(F)F)cc43)nn2C2CC3(C2)CC2(CCN(c4ncc(C(=O)NC5C(C)(C)C(Oc6ccc(C#N)c(Cl)c6)C5(C)C)cn4)CC2)C3)C1` (stereo not shown) [Compound 287, 2-[2-[5-acetyl-3-[7-(difluoromethyl)-6-(1-methylpyrazol-4-yl)-3,4-dihydro-2H-quinolin-1-yl]-6,7-dihydro-4H-pyrazolo[4,3-c]pyridin-1-yl]-9-azadispiro[3.1.5^6.1^4]dodecan-9-yl]-N-[3-(3-chloro-4-cyano-phenoxy)-2,2,4,4-tetramethyl-cyclobutyl]pyrimidine-5-carboxamide] showed an EC50 in the experiment on AR / CBP ternary complex of 1 to 10 nM. This molecule gave a half-maximal inhibitory concentration (IC50) with VCaP cells of 1 to 100 nM.

For `CC(=O)N1CCc2c(c(N3CCCc4cc(-c5cnn(C)c5)c(C(F)F)cc43)nn2C2CCC(OC3CN(c4ncc(C(=O)NC5C(C)(C)C(Oc6ccc(C#N)c(Cl)c6)C5(C)C)cn4)C3)CC2)C1` (stereo not shown) [Compound 341], the EC50 in the experiment on AR / CBP ternary complex was less than 1 nM. Also, the 50% inhibitory concentration (IC50) with VCaP cells is 0.1 to 1 nM.

Molecule `COc1cc(OC2C(C)(C)C(NC(=O)c3ccc(N4CC5(CCC(C6CCC(n7nc(N8CCCc9cc(-c%10cnn(C)c%10)c(C(F)F)cc98)c8c7CCN(C(C)=O)C8)CC6)CC5)C4)cc3)C2(C)C)ccc1C#N` (stereo not shown) [Compound 378, 4-[7-[4-[5-acetyl-3-[7-(difluoromethyl)-6-(1-methylpyrazol-4-yl)-3,4-dihydro-2H-quinolin-1-yl]-6,7-dihydro-4H-pyrazolo[4,3-c]pyridin-1-yl]cyclohexyl]-2-azaspiro[3.5]nonan-2-yl]-N-[3-(4-cyano-3-methoxy-phenoxy)-2,2,4,4-tetramethyl-cyclobutyl]benzamide] had a concentration for a half-maximal effect (EC50) with AR / CBP ternary complex of 1 to 10 nM. In addition, the IC50 with VCaP cells was in the range of 1 to 100 nM.

As for `COc1cc(OC2C(C)(C)C(NC(=O)c3ccc(N4CCC(CCc5ccc(-c6cc7c(cc6C(F)F)N(c6nn(C8CCOCC8)c8c6CN(C(C)=O)CC8)CCC7)cc5)CC4)cc3)C2(C)C)ccc1C#N` (stereo not shown) [Compound 248, 4-[4-[2-[4-[1-(5-acetyl-1-tetrahydropyran-4-yl-6,7-dihydro-4H-pyrazolo[4,3-c]pyridin-3-yl)-7-(difluoromethyl)-3,4-dihydro-2H-quinolin-6-yl]phenyl]ethyl]-1-piperidyl]-N-[3-(4-cyano-3-methoxy-phenoxy)-2,2,4,4-tetramethyl-cyclobutyl]benzamide], in the experiment on AR / CBP ternary complex, the EC50 is less than 1 nM. Besides, the IC50 in the experiment on VCaP cells is 0.1 to 1 nM.

Molecule `COC1CN(c2ncc(C(=O)NC3C(C)(C)C(Oc4ccc(C#N)c(Cl)c4)C3(C)C)cn2)CCC1CN1CCC(n2nc(N3CCCc4cc(-c5cnn(C)c5)c(C(F)F)cc43)c3c2CCN(C(C)=O)C3)CC1` (stereo not shown) [Compound 331, 2-[4-[[4-[5-acetyl-3-[7-(difluoromethyl)-6-(1-methylpyrazol-4-yl)-3,4-dihydro-2H-quinolin-1-yl]-6,7-dihydro-4H-pyrazolo[4,3-c]pyridin-1-yl]-1-piperidyl]methyl]-3-methoxy-1-piperidyl]-N-[3-(3-chloro-4-cyano-phenoxy)-2,2,4,4-tetramethyl-cyclobutyl]pyrimidine-5-carboxamide] displayed an EC50 in the experiment with AR / CBP ternary complex of less than 1 nM. The IC50 with VCaP cells lay in the range of 0.1 to 1 nM.
